# Values joined by “and” are separate entries in the source; they are usually repeats but may differ in a detail not shown here. Equal entries are not always repeated.
# What was measured:
# Test in all cases: ≥ marks a high value that may be exact or a test limit, other limits are often not marked, values filed in µg/mL are converted to µM
# [1] = test system: Staphylococcus aureus USA 300
# [2] = test system: Escherichia coli ATCC 25922
# [3] = test system: Pseudomonas aeruginosa PAO1
# [4] = test system: Klebsiella pneumoniae ATCC 13883
# [5] = test system: Staphylococcus aureus ATCC BAA-1556
# Escherichia coli = test system: Escherichia coli
# Staphylococcus aureus = test system: Staphylococcus aureus
# Bacillus subtilis = test system: Bacillus subtilis
# Salmonella typhimurium = test system: Salmonella typhimurium
# Enterococcus faecium = test system: Enterococcus faecium
# Pseudomonas aeruginosa = test system: Pseudomonas aeruginosa
# Acinetobacter baumannii = test system: Acinetobacter baumannii
# Klebsiella pneumoniae = test system: Klebsiella pneumoniae
# Streptococcus mutans = test system: Streptococcus mutans
# Micrococcus luteus = test system: Micrococcus luteus
compound,measurement,setting,value
CC(C)C[C@H](NC(=O)[C@H](CC(C)C)NC(=O)[C@H](CCCCN)NC(=O)CNC(=O)[C@H](CC(C)C)NC(=O)[C@H](CC(C)C)NC(=O)[C@H](CO)NC(=O)[C@H](CC(C)C)NC(=O)[C@H](CC(C)C)NC(=O)[C@H](CO)NC(=O)[C@H](CC(C)C)NC(=O)[C@H](C)NC(=O)CN)C(N)=O [GALSLLSLLGKLL],MIC,[1],0.78 µM
same,MIC,[2],3.1 µM
same,MIC,[3],12.5 µM
same,MIC,[4],6.2 µM
CC(C)C[C@H](NC(=O)[C@H](Cc1c[nH]c2ccccc12)NC(=O)[C@H](Cc1c[nH]c2ccccc12)NC(=O)[C@H](CC(C)C)NC(=O)[C@H](Cc1c[nH]c2ccccc12)NC(=O)[C@H](Cc1c[nH]c2ccccc12)NC(=O)[C@H](CC(C)C)NC(=O)[C@H](Cc1c[nH]c2ccccc12)NC(=O)[C@@H](N)CCCN=C(N)N)C(N)=O [RWLWWLWWL],MIC,[5],6.25 µM
CC[C@H](C)[C@H](NC(=O)[C@H](C)NC(=O)[C@H](CCCN=C(N)N)NC(=O)[C@H](CCCN=C(N)N)NC(=O)[C@H](Cc1c[nH]c2ccccc12)NC(=O)[C@@H](N)CCCCN)C(=O)N[C@@H](CCCN=C(N)N)C(=O)N[C@@H](Cc1c[nH]c2ccccc12)C(=O)N[C@@H](CC(C)C)C(N)=O [KWRRAIRWL],MIC,[5],25 µM
CC(C)C[C@H](NC(=O)[C@H](CC(C)C)NC(=O)[C@H](CC(C)C)NC(=O)[C@H](CC(C)C)NC(=O)[C@H](CCCCN)NC(=O)[C@H](CCCCN)NC(=O)[C@H](CC(C)C)NC(=O)[C@H](CC(C)C)NC(=O)[C@@H](N)CC(C)C)C(N)=O [LLLKKLLLL],MIC,[5],≥ 100 µM
CC[C@H](C)[C@H](NC(=O)[C@H](CC(C)C)NC(=O)[C@H](CCCN=C(N)N)NC(=O)[C@H](CCCN=C(N)N)NC(=O)[C@H](Cc1c[nH]c2ccccc12)NC(=O)[C@@H](N)CCCCN)C(=O)N[C@@H](CCCN=C(N)N)C(=O)N[C@@H](Cc1c[nH]c2ccccc12)C(=O)N[C@@H](CC(C)C)C(N)=O [KWRRLIRWL],MIC,[5],25 µM
CC(C)[C@H](NC(=O)CNC(=O)[C@H](CCCN=C(N)N)NC(=O)[C@@H](NC(=O)[C@@H](NC(=O)[C@@H](NC(=O)[C@H](CCCN=C(N)N)NC(=O)CNC(=O)[C@H](Cc1c[nH]c2ccccc12)NC(=O)[C@H](CCCN=C(N)N)NC(=O)[C@@H](NC(=O)[C@@H](NC(=O)[C@@H](NC(=O)CN)C(C)C)C(C)C)C(C)C)C(C)C)C(C)C)C(C)C)C(=O)N[C@@H](CCCN=C(N)N)C(=O)N[C@@H](CCCN=C(N)N)C(N)=O [GVVVRWGRVVVRGVRR],MIC,Escherichia coli,8 µM
same,MIC,Staphylococcus aureus,8 µM
same,MIC,Bacillus subtilis,4 µM
same,MIC,Salmonella typhimurium,4 µM
CC[C@H](C)[C@H](NC(=O)[C@@H](NC(=O)[C@H](CO)NC(=O)[C@@H](NC(=O)[C@@H](NC(=O)[C@H](CCCCN)NC(=O)CNC(=O)[C@H](CC(C)C)NC(=O)[C@H](CC(C)C)NC(=O)CNC(=O)CNC(=O)[C@H](CC(C)C)NC(=O)[C@H](CC(C)C)NC(=O)CNC(=O)[C@H](CCCCN)NC(=O)[C@H](CO)NC(=O)[C@@H](NC(=O)[C@H](CCCCN)NC(=O)[C@H](Cc1c[nH]c2ccccc12)NC(=O)[C@H](Cc1c[nH]c2ccccc12)NC(=O)[C@H](CCCCN)NC(=O)[C@H](CCCCN)NC(=O)[C@@H](N)CC(C)C)[C@@H](C)O)C(C)C)[C@@H](C)O)C(C)C)C(=O)N[C@@H](CCCCN)C(=O)O [LKKWWKTSKGLLGGLLGKVTSVIK],MIC,Enterococcus faecium,1 µM
same,MIC,Pseudomonas aeruginosa,2.83 µM and 2 µM and 5.66 µM
same,MIC,Escherichia coli,1.41 µM
same,MIC,Staphylococcus aureus,2 µM
same,MIC,[1],5.66 µM
same,MIC,Acinetobacter baumannii,2.83 µM and 1 µM
same,MIC,Klebsiella pneumoniae,2.83 µM
CC(C)C[C@H](NC(=O)[C@H](CC(C)C)NC(=O)[C@H](CCCCN)NC(=O)[C@H](CC(C)C)NC(=O)[C@H](CCCCN)NC(=O)[C@H](CC(C)C)NC(=O)[C@H](CO)NC(=O)[C@H](CC(C)C)NC(=O)[C@H](CC(C)C)NC(=O)[C@H](CC(C)C)NC(=O)[C@H](CO)NC(=O)[C@H](CC(C)C)NC(=O)CN)C(N)=O [GLSLLLSLKLKLL],MIC,[1],6.2 µM
same,MIC,[2],> 25 µM
same,MIC,[3],> 25 µM
same,MIC,[4],25 µM
CC[C@H](C)[C@H](NC(=O)CNC(=O)CNC(=O)CNC(=O)[C@H](Cc1cnc[nH]1)NC(=O)[C@H](CC(C)C)NC(=O)[C@H](CC(C)C)NC(=O)[C@H](Cc1cnc[nH]1)NC(=O)[C@H](Cc1cnc[nH]1)NC(=O)[C@H](CC(C)C)NC(=O)[C@H](CCCCN)NC(=O)[C@H](CCCCN)NC(=O)[C@H](CC(C)C)NC(=O)[C@H](CC(C)C)NC(=O)[C@H](CCCN=C(N)N)NC(=O)[C@H](CCCN=C(N)N)NC(=O)[C@H](Cc1c[nH]c2ccccc12)NC(=O)[C@@H](N)CCCN=C(N)N)C(=O)N[C@@H](CCCCN)C(=O)N[C@@H](CCC(N)=O)C(=O)N[C@@H](CC(C)C)C(=O)N[C@@H](CC(C)C)C(=O)N[C@@H](Cc1cnc[nH]1)C(=O)N[C@@H](Cc1ccccc1)C(=O)N[C@@H](Cc1ccccc1)C(=O)N[C@@H](CCC(N)=O)C(=O)N[C@@H](CCCN=C(N)N)C(=O)N[C@@H](Cc1ccccc1)C(N)=O [RWRRLLKKLHHLLHGGGIKQLLHFFQRF],MIC,Streptococcus mutans,4.52 µM
CC(C)C[C@H](NC(=O)[C@H](CC(C)C)NC(=O)[C@H](CCCCN)NC(=O)CNC(=O)[C@H](CC(C)C)NC(=O)[C@H](CO)NC(=O)[C@H](CO)NC(=O)[C@H](CC(C)C)NC(=O)CN)C(N)=O [GLSSLGKLL],MIC,[1],25 µM
same,MIC,[2],> 25 µM
same,MIC,[3],> 25 µM
same,MIC,[4],25 µM
CC(C)C[C@H](NC(=O)[C@H](CC(C)C)NC(=O)[C@H](CCCCN)NC(=O)CNC(=O)[C@H](CC(C)C)NC(=O)[C@H](CO)NC(=O)[C@H](CO)NC(=O)[C@H](CC(C)C)NC(=O)[C@H](CC(C)C)NC(=O)CN)C(N)=O [GLLSSLGKLL],MIC,[1],25 µM
same,MIC,[2],> 25 µM
same,MIC,[3],> 25 µM
same,MIC,[4],25 µM
CC(C)C[C@H](NC(=O)[C@H](CC(C)C)NC(=O)[C@H](CCCCN)NC(=O)[C@H](CC(C)C)NC(=O)[C@H](CCCCN)NC(=O)[C@H](CC(C)C)NC(=O)[C@H](CC(C)C)NC(=O)[C@H](CC(C)C)NC(=O)[C@@H](N)CC(C)C)C(N)=O [LLLLKLKLL],MIC,[5],≥ 100 µM
CC[C@H](C)[C@H](NC(=O)[C@H](CCC(=O)O)NC(=O)[C@@H]1CCCN1C(=O)[C@H](CO)NC(=O)[C@H](Cc1ccccc1)NC(=O)[C@H](C)NC(=O)[C@@H](NC(=O)CNC(=O)[C@H](CC(C)C)NC(=O)[C@H](CCCCN)NC(=O)[C@H](C)NC(=O)[C@H](C)NC(=O)[C@H](CCSC)NC(=O)[C@@H](NC(=O)[C@@H](NC(=O)[C@@H](NC(=O)[C@H](CC(C)C)NC(=O)[C@H](CS)NC(=O)[C@H](CC(N)=O)NC(=O)CNC(=O)[C@H](CC(C)C)NC(=O)[C@H](CC(C)C)NC(=O)[C@@H](N)CCCN=C(N)N)[C@@H](C)O)C(C)C)C(C)C)[C@@H](C)O)C(=O)N[C@@H](CCC(N)=O)C(=O)N[C@@H](CS)C(=O)N[C@@H](C)C(=O)N[C@@H](Cc1c[nH]c2ccccc12)C(=O)N[C@@H](CCC(N)=O)C(=O)N[C@@H](CCCCN)C(=O)O [RLLGNCLTVVMAAKLGTAFSPEIQCAWQK],MIC,Micrococcus luteus,31.2 µM
CC(C)C[C@H](NC(=O)[C@H](Cc1c[nH]c2ccccc12)NC(=O)[C@H](Cc1c[nH]c2ccccc12)NC(=O)[C@H](CC(C)C)NC(=O)[C@H](Cc1c[nH]c2ccccc12)NC(=O)[C@@H](N)Cc1c[nH]c2ccccc12)C(=O)N[C@@H](CCCN=C(N)N)C(=O)N[C@@H](Cc1c[nH]c2ccccc12)C(N)=O [WWLWWLRW],MIC,[5],6.25 µM
CC(C)C[C@H](NC(=O)[C@H](CC(C)C)NC(=O)[C@H](CC(C)C)NC(=O)[C@H](CC(C)C)NC(=O)[C@H](CC(C)C)NC(=O)[C@H](CCCCN)NC(=O)[C@H](CCCCN)NC(=O)[C@H](CC(C)C)NC(=O)[C@@H](N)CC(C)C)C(N)=O [LLKKLLLLL],MIC,[5],12.5 µM
CC[C@H](C)[C@H](NC(=O)[C@H](Cc1ccccc1)NC(=O)[C@H](Cc1cnc[nH]1)NC(=O)[C@@H](NC(=O)[C@H](Cc1ccccc1)NC(=O)[C@H](CCC(N)=O)NC(=O)[C@H](CCCCN)NC(=O)[C@@H](N)CC(C)C)C(C)C)C(=O)N[C@@H](Cc1cnc[nH]1)C(=O)N[C@@H](CCCN=C(N)N)C(=O)N[C@@H](Cc1ccccc1)C(N)=O [LKQFVHFIHRF],MIC,Streptococcus mutans,21.7 µM
CC(C)C[C@H](NC(=O)[C@H](Cc1c[nH]c2ccccc12)NC(=O)[C@H](CCCN=C(N)N)NC(=O)[C@H](CC(C)C)NC(=O)[C@H](Cc1c[nH]c2ccccc12)NC(=O)[C@H](CCCN=C(N)N)NC(=O)[C@H](CCCN=C(N)N)NC(=O)[C@H](Cc1c[nH]c2ccccc12)NC(=O)[C@@H](N)CCCCN)C(N)=O [KWRRWLRWL],MIC,[5],3.12 µM
CC(C)C[C@H](NC(=O)[C@H](CCCCN)NC(=O)[C@H](CC(C)C)NC(=O)[C@H](CC(C)C)NC(=O)[C@H](Cc1c[nH]c2ccccc12)NC(=O)[C@H](CCCCN)NC(=O)[C@H](CC(C)C)NC(=O)[C@H](CC(C)C)NC(=O)[C@H](CCCCN)NC(=O)[C@@H](N)CCCCN)C(N)=O [KKLLKWLLKL],MIC,[5],12.5 µM

# Source: DBAASP
